In ChEMBL document CHEMBL5584314, “Identification of an m6A Natural Inhibitor, Lobeline, That Reverses Lenvatinib Resistance in Hepatocellular Tumors” (J Nat Prod, 2024):
Activity calls are given as the source filed them. The calls are words filed in the database; no cut-off is given here.

Experiments:
[1] = test system: Lenvatinib-resistant Huh7/Len; assay: Antiproliferative activity against human Lenvatinib-resistant Huh7/Len cells assessed as inhibition of cell viability up to 40 uM after 72 hrs in presence of lobeline by CCK-8 assay; format: functional, cell-based
[2] = test system: Lenvatinib-resistant Hep3B/Len; assay: Antiproliferative activity against human Lenvatinib-resistant Hep3B/Len cells assessed as inhibition of cell viability up to 40 uM after 72 hrs in presence of lobeline by CCK-8 assay; format: functional, cell-based
[3] = test system: Lenvatinib-resistant Huh7/Len; assay: Antiproliferative activity against human Lenvatinib-resistant Huh7/Len cells assessed as inhibition of clone formation ability at 5 to 10 uM preincubated for 72 hrs and measured after 7 to 10 days by crystal violet staining based assay; format: functional, cell-based; settings: dose 5-10 µM, time 10-13 day
[4] = test system: Lenvatinib-resistant Hep3B/Len; assay: Antiproliferative activity against human Lenvatinib-resistant Hep3B/Len cells assessed as inhibition of clone formation ability at 5 to 10 uM preincubated for 72 hrs and measured after 7 to 10 days by crystal violet staining based assay; format: functional, cell-based; settings: dose 5-10 µM, time 10-13 day
[5] = test system: Lenvatinib-resistant Huh7/Len; assay: Antiproliferative activity against human Lenvatinib-resistant Huh7/Len cells assessed as inhibition of clone formation ability at 5 to 10 uM preincubated for 72 hrs and measured after 7 to 10 days in presence of lobeline by crystal violet staining based assay; format: functional, cell-based; settings: dose 5-10 µM, time 10-13 day
[6] = test system: Lenvatinib-resistant Hep3B/Len; assay: Antiproliferative activity against human Lenvatinib-resistant Hep3B/Len cells assessed as inhibition of clone formation ability at 5 to 10 uM preincubated for 72 hrs and measured after 7 to 10 days in presence of lobeline by crystal violet staining based assay; format: functional, cell-based; settings: dose 5-10 µM, time 10-13 day
[7] = test system: Lenvatinib-resistant Huh7/Len; assay: Inhibition of cell migration in human Lenvatinib-resistant Huh7/Len cells at 5 uM incubated for 48 hrs by transwell assay; format: functional, cell-based
[8] = test system: Lenvatinib-resistant Hep3B/Len; assay: Inhibition of cell migration in human Lenvatinib-resistant Hep3B/Len cells at 5 uM incubated for 48 hrs by transwell assay; format: functional, cell-based
[9] = test system: Lenvatinib-resistant Huh7/Len; assay: Inhibition of cell migration in human Lenvatinib-resistant Huh-7/Len cells at 5 uM incubated for 48 hrs in presence of lobeline by transwell assay relative to control; format: functional
[10] = test system: Lenvatinib-resistant Hep3B/Len; assay: Inhibition of cell migration in human Lenvatinib-resistant Hep3B/Len cells at 5 uM incubated for 48 hrs in presence of lobeline by transwell assay relative to control; format: functional
[11] = test system: Lenvatinib-resistant Huh7/Len; assay: Antitumor activity against human Lenvatinib-resistant Huh7/Len cells xenografted in BALB/c nude mouse assessed as tumor growth inhibition at 3 mg/kg, IG cotreated with lobeline 5 times per week for 3 weeks; format: functional, organism-based
[12] = test system: Lenvatinib-resistant Huh7/Len; assay: Antitumor activity against human Lenvatinib-resistant Huh7/Len cells xenografted in BALB/c nude mouse assessed as inhibition of tumor volume at 3 mg/kg, IG cotreated with lobeline 5 times per week for 3 weeks relative to control; format: functional; settings: po, 504 h
[13] = Toxicity in BALB/c nude mouse xenografted with human Lenvatinib-resistant Huh7/Len cells assessed as changes in body weight at 3 mg/kg, IG administered 5 times per week for 3 weeks; format: organism-based; settings: in vivo, po, 504 h
[14] = Toxicity in BALB/c nude mouse xenografted with human Lenvatinib-resistant Huh7/Len cells assessed as changes in organ index at 3 mg/kg, IG administered 5 times per week for 3 weeks; format: organism-based; settings: in vivo, po, 504 h
[15] = Toxicity in BALB/c nude mouse xenografted with human Lenvatinib-resistant Huh7/Len cells assessed as changes in body weight at 3 mg/kg, IG cotreated with lobeline 5 times per week for 3 weeks; format: organism-based; settings: in vivo, po, 504 h
[16] = Toxicity in BALB/c nude mouse xenografted with human Lenvatinib-resistant Huh7/Len cells assessed as changes in organ index at 3 mg/kg, IG cotreated with lobeline 5 times per week for 3 weeks; format: organism-based; settings: in vivo, po, 504 h
[17] = test system: Lenvatinib-resistant Huh7/Len; assay: Antitumor activity against human Lenvatinib-resistant Huh7/Len cells xenografted in BALB/c nude mouse assessed as reduction in Ki-67 protein expression tumor tissue at 3 mg/kg, IG cotreated with lobeline 5 times per week for 3 weeks by immunohistochemistry analysis; format: functional; set-up: scale not given: the % may be the effect or the level left
[18] = test system: Lenvatinib-resistant Huh7/Len; assay: Induction of apoptosis in human Lenvatinib-resistant Huh7/Len cells xenografted in BALB/c nude mouse assessed as apoptotic cells in tumor tissue at 3 mg/kg, IG cotreated with lobeline 5 times per week for 3 weeks by immunohistochemistry analysis; format: functional, organism-based
[19] = test system: Lenvatinib-resistant HCC/Len; assay: Antitumor activity against human Lenvatinib-resistant HCC/Len cells xenografted in BALB/c nude mouse model of PDX assessed as tumor growth inhibition at 3 mg/kg, IG cotreated with lobeline 5 times per week for 3 weeks; format: functional, organism-based
[20] = test system: Lenvatinib-resistant HCC/Len; assay: Antitumor activity against human Lenvatinib-resistant HCC/Len cells xenografted in BALB/c nude mouse model of PDX assessed as inhibition of tumor volume at 3 mg/kg, IG cotreated with lobeline 5 times per week for 3 weeks relative to control; format: functional; settings: po, 504 h
[21] = Toxicity in BALB/c nude mouse PDX model xenografted with human Lenvatinib-resistant HCC/Len cells assessed as changes in body weight at 3 mg/kg, IG administered 5 times per week for 3 weeks; format: organism-based; settings: in vivo, po, 504 h
[22] = Toxicity in BALB/c nude mouse PDX model xenografted with human Lenvatinib-resistant HCC/Len cells assessed as changes in organ index at 3 mg/kg, IG administered 5 times per week for 3 weeks; format: organism-based; settings: in vivo, po, 504 h
[23] = Toxicity in BALB/c nude mouse PDX model xenografted with human Lenvatinib-resistant HCC/Len cells assessed as changes in body weight at 3 mg/kg, IG cotreated with lobeline 5 times per week for 3 weeks administered 5 times per week for 3 weeks; format: organism-based; settings: in vivo, po, 504 h
[24] = Toxicity in BALB/c nude mouse PDX model xenografted with human Lenvatinib-resistant HCC/Len cells assessed as changes in organ index at 3 mg/kg, IG cotreated with lobeline 5 times per week for 3 weeks administered 5 times per week for 3 weeks; format: organism-based; settings: in vivo, po, 504 h
[25] = test system: Lenvatinib-resistant HCC/Len; assay: Antitumor activity against human Lenvatinib-resistant HCC/Len cells xenografted in BALB/c nude mouse model of PDX assessed as reduction in Ki-67 protein expression tumor tissue at 3 mg/kg, IG cotreated with lobeline 5 times per week for 3 weeks by immunohistochemistry analysis; format: functional, organism-based
[26] = test system: Lenvatinib-resistant HCC/Len; assay: Antitumor activity against human Lenvatinib-resistant HCC/Len cells xenografted in BALB/c nude mouse model of PDX assessed as reduction in m6A protein expression tumor tissue at 3 mg/kg, IG cotreated with lobeline 5 times per week for 3 weeks by immunohistochemistry analysis; format: functional, organism-based

For `COc1cc2nccc(Oc3ccc(NC(=O)NC4CC4)c(Cl)c3)c2cc1C(N)=O` [LENVATINIB], the inhibition [1] was “Active”, the inhibition [2] was “Active” and the inhibition [3] was “inactive”. The inhibition [4] was “inactive”, the inhibition [5] was “inactive” and the inhibition [6] was “inactive”. For the same compound, the inhibition [7] was “inactive”, the inhibition [8] was “inactive” and the inhibition at 5 µM [9] was 42%. The inhibition at 5 µM [10] was 42%, the TGI [11] was “Active” and the inhibition in vivo at 3 mg/kg [12] was 68%. For the same compound, the Activity [13] was “Non-Toxic”, the Activity [14] was “Non-Toxic” and the Activity [15] was “Non-Toxic”. For the same compound, the Activity [16] was “Non-Toxic”, the Activity [17] was 30% and the Activity [18] was “Active”. The TGI [19] was “Active”, the inhibition in vivo at 3 mg/kg [20] was 60% and the Activity [21] was “Non-Toxic”. The Activity [22] was “Non-Toxic”, the Activity [23] was “Non-Toxic” and the Activity [24] was “Non-Toxic”. The Activity [25] was “Active” and the Activity [26] was “Active”.
